These results are taken from US10703748B2, “Diazanaphthalen-3-yl carboxamides and preparation and use thereof” (Samumed, LLC, priority 2017, dated 2020).

Assay [1] relates to IL-6. In words: IL-6 inhibition in LPS-stimulated human peripheral blood mononuclear cells (HTRF). The conditions noted are these: Homo sapiens, PBMC; for pEC50: 22 h; for inhibition at 10 µM: read-out: percentage in parentheses after EC50 >10. On the technique in general: Time-resolved FRET reads energy transfer from a long-lived donor to a nearby acceptor.
In assay [2] the test system is Wnt-responsive Sp5-Luc reporter in SW480 colon carcinoma cells. In words: Screening assay for Wnt activity (Sp5-Luc reporter gene assay). The conditions noted are these: for inhibition at 10 µM: SW480, read-out: percent inhibition at 10 μM. In general terms: In a reporter assay the amount or activity of a reporter protein is the signal.
The target of assay [3] is GSK3β kinase (Homo sapiens, UniProt P49841). In words: GSK3β kinase activity (Ser/Thr 09 peptide Z-lyte FRET assay). Format: biochemical. The conditions noted are these: recombinant kinase, 46 μM ATP, one hour at room temperature; read-out: EC50.
GSK3β kinase, sequence (P49841 whole entry): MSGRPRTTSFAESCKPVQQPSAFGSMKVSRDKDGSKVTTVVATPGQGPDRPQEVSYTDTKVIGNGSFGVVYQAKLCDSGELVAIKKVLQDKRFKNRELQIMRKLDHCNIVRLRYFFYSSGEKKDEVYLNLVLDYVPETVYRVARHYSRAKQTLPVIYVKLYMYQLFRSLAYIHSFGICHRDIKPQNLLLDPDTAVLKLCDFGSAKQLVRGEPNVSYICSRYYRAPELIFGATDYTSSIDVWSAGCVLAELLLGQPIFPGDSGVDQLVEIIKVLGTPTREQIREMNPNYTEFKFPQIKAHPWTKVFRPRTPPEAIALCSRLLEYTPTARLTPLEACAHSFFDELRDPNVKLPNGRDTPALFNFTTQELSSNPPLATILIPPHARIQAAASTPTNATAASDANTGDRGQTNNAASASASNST
The test system of assay [4] is SW480 colon carcinoma cells. In words: Cell viability assay (CellTiter-Glo). The conditions noted are these: for inhibition at 10 µM: SW480, read-out: percent inhibition at 10 μM. (In general: Cellular ATP, detected with luciferase, serves as a proxy for viable cell number.)
The target of assay [5] is DYRK1A kinase (Homo sapiens, UniProt Q13627). In words: DYRK1A kinase activity (Ser/Thr 18 peptide Z-lyte FRET assay).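 Note: kinase activity read as coumarin/fluorescein emission ratio after development step, with unphosphorylated and phosphorylated peptide forms setting 0% and 100% controls, values from dose-response curves.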 The conditions noted are these: recombinant DYRK1A, 30 μM ATP, one hour at room temperature. Format: biochemical.
In assay [6] the test system is secreted cytokines TNFα, IL-6 and KC-GRO. In words: Secreted cytokines in Lipopolysaccharide-stimulated BV-2 cells (Table 9 does not say which cytokine). Format: cell-based, mouse. The conditions noted are these: read-out: EC50.
The subject of assay [7] is α-smooth muscle actin (aSMA) positive LL29 cells. In words: Inhibition of the fibrotic process: αSMA staining in TGF-β1 treated LL29 fibroblasts from IPF patients. The conditions noted are these: for inhibition at 10 µM: read-out: percentage in parentheses after EC50 >10.

pEC50: −log10 of the molar value. Read-outs that look alike come from different tables or passages of the source.

Usually pEC50 stands for the EC50 on a negative log10 scale, so that one unit is a factor of ten. Take `O=C(Nc1cc2cc(-c3cncc(NCC4(F)CNC4)n3)cnc2cn1)C1CC1` [Compound 3591, N-(3-(6-(((3-Fluoroazetidin-3-yl)methyl)amino)pyrazin-2-yl)-1,7-naphthyridin-6-yl)cyclopropanecarboxamide]: the pEC50 is less than 5.00 in assay [1]; less than 5.00 in assay [2] (Homo sapiens, SW480); 5.64 in assay [3]; less than 5.00 in assay [4] (Homo sapiens, SW480, 96 h); 8.00 in assay [5]; 5.62 in assay [6] (Mus musculus, BV-2, 5 h). In addition, the inhibition at 10 µM in assay [1] was determined as 4.4%; in assay [2] (Homo sapiens), 1.3%; in assay [4] (Homo sapiens), 6.1%.
As to `CN1CCN(c2ncc(C(=O)Nc3cc4cc(-c5cnn(C)c5)ncc4cn3)s2)CC1` [Compound 4602, N-(6-(1-Methyl-1H-pyrazol-4-yl)-2,7-naphthyridin-3-yl)-2-(4-methylpiperazin-1-yl)thiazole-5-carboxamide], the pEC50 was less than 5.00 in assay [2] (SW480 Sp5-Luc reporter cells, 36 to 48 hours); less than 5.00 in assay [4] (SW480 cells, four days, CellTiter-Glo); 5.54 in assay [6] (BV-2 cells, LPS 250 ng/mL 5 hours, compounds overnight, 10 μM to […], cytokine not named in Table 9); less than 5.00 in assay [7] (LL29 fibroblasts from IPF patients, TGF-β1 20 ng/mL, 4 days, curves from 10 μM to 0.94 nM). In addition, the “percent inhibition at 10 μM” value amounted to 10.9% in assay [2] (at 10 μM, given for EC50 of >10 μM, SW480 Sp5-Luc reporter) and 26.1% in assay [4] (at 10 μM, given for EC50 of >10 μM, SW480 cell viability). Also, the “percentage in parentheses after EC50 >10” value in assay [7] (LL29 fibroblasts, TGF-β1, given beside >10 μM, meaning not given) is reported as 14.3%.
With `CN1CCCN(c2cc(C(=O)Nc3cc4cc(-c5cn(C)nn5)ncc4cn3)ccn2)CC1` [Compound 4006, 2-(4-Methyl-1,4-diazepan-1-yl)-N-(6-(1-methyl-1H-1,2,3-triazol-4-yl)-2,7-naphthyridin-3-yl)isonicotinamide], the pEC50 in assay [1] was less than 5.00; in assay [2] (Homo sapiens, SW480) it was less than 5.00; in assay [3] it was 5.83; in assay [4] (Homo sapiens, SW480, 96 h), 5.10; in assay [5], 7.25; in assay [7] (Homo sapiens, Fibroblast, 96 h), less than 5.00. Also, the inhibition at 10 µM in assay [1] stood at 8.9%; in assay [2] (Homo sapiens), 37.7%; in assay [7] (Homo sapiens, Fibroblast), 5.2%.
As for `Cc1nnc(-c2cnc3cnc(NC(=O)CN4C5CCC4CC5)cc3c2)s1` [Compound 3446, 2-(7-Azabicyclo[2.2.1]heptan-7-yl)-N-(3-(5-methyl-1,3,4-thiadiazol-2-yl)-1,7-naphthyridin-6-yl)acetamide], the pEC50 in assay [1] is less than 5.00; in assay [2] (Homo sapiens, SW480), less than 5.00; in assay [3] it was less than 5.00; in assay [4] (Homo sapiens, SW480, 96 h), less than 5.00; in assay [5], 5.68; in assay [7] (Homo sapiens, Fibroblast, 96 h), less than 5.00. The inhibition at 10 µM in assay [1] worked out at 5.8%; in assay [2] (Homo sapiens), 29.9%; in assay [4] (Homo sapiens), 16.1%; in assay [7] (Homo sapiens, Fibroblast) it was 16.9%.
`CC(C)CN1CCC(C(=O)Nc2cc3cc(-c4nnnn4C)cnc3cn2)CC1` [Compound 3118, 1-Isobutyl-N-(3-(1-methyl-1H-tetrazol-5-yl)-1,7-naphthyridin-6-yl) piperidine-4-carboxamide]: the pEC50 in assay [1] was less than 5.00; in assay [2] (Homo sapiens, SW480), less than 5.00; in assay [3], less than 5.00; in assay [4] (Homo sapiens, SW480, 96 h) it was less than 5.00; in assay [5], 5.83; in assay [7] (Homo sapiens, Fibroblast, 96 h), 5.31. Further, the inhibition at 10 µM was determined as 5.3% in assay [1], 31.2% in assay [2] (Homo sapiens) and 8.3% in assay [4] (Homo sapiens).
On to `Cc1nnc(-c2cnc3cnc(NC(=O)c4ccnc(SC5CCN(C)CC5)c4)cc3c2)s1` [Compound 3474, N-(3-(5-Methyl-1,3,4-thiadiazol-2-yl)-1,7-naphthyridin-6-yl)-2-((1-methylpiperidin-4-yl)thio)isonicotinamide], for which the pEC50 in assay [1] was less than 5.00; in assay [2] (Homo sapiens, SW480) it was less than 5.00; in assay [3], less than 5.00; in assay [4] (Homo sapiens, SW480, 96 h), less than 5.00; in assay [5] it was 7.15; in assay [7] (Homo sapiens, Fibroblast, 96 h) it was less than 5.00. Moreover, the inhibition at 10 µM in assay [1] amounted to 3.9%; in assay [2] (Homo sapiens), 1.9%; in assay [4] (Homo sapiens) it was 17.1%; in assay [7] (Homo sapiens, Fibroblast) it was 37%.
With `Cc1ncc(-c2ccc3cnc(NC(=O)C4CCN(CC(C)(F)F)CC4)nc3c2)o1` [Compound 1471, 1-(2,2-Difluoropropyl)-N-(7-(2-methyloxazol-5-yl)quinazolin-2-yl)piperidine-4-carboxamide], the pEC50 in assay [1] is less than 5.00; in assay [2] (Homo sapiens, SW480), less than 5.00; in assay [3], 6.24; in assay [4] (Homo sapiens, SW480, 96 h), less than 5.00; in assay [5], 7.34; in assay [7] (Homo sapiens, Fibroblast, 96 h), less than 5.00. The inhibition at 10 µM was determined as 1.8% in assay [1]; 17.8% in assay [2] (Homo sapiens); 11.3% in assay [4] (Homo sapiens); 43.6% in assay [7] (Homo sapiens, Fibroblast).
For the compound `O=C(Nc1cc2cc(-c3cncc(OCC4CNC4)n3)cnc2cn1)c1ccc(F)cc1` [Compound 3612, N-(3-(6-(Azetidin-3-ylmethoxy)pyrazin-2-yl)-1,7-naphthyridin-6-yl)-4-fluorobenzamide], the pEC50 in assay [1] was 5.30; in assay [2] (Homo sapiens, SW480), 5.41; in assay [3], less than 5.00; in assay [4] (Homo sapiens, SW480, 96 h), 5.55; in assay [5] it was 6.31; in assay [7] (Homo sapiens, Fibroblast, 96 h) it was 5.41.
Turning to `Cn1ncc(-c2cnc3cnc(NC(=O)c4ccnc(N5CCOCC5)c4)cc3c2)c1CN1CCOCC1` [Compound 3034, N-(3-(1-Methyl-5-(morpholinomethyl)-1H-pyrazol-4-yl)-1,7-naphthyridin-6-yl)-2-morpholinoisonicotinamide], the negative-log EC50 (pEC50) is less than 5.00 in assay [1]; less than 5.00 in assay [2] (Homo sapiens, SW480); less than 5.00 in assay [3]; less than 5.00 in assay [4] (Homo sapiens, SW480, 96 h); 6.92 in assay [5]; less than 5.00 in assay [7] (Homo sapiens, Fibroblast, 96 h). Besides, the inhibition at 10 µM came out at 9.5% in assay [1]; 0% in assay [2] (Homo sapiens); 10.5% in assay [4] (Homo sapiens); 31.8% in assay [7] (Homo sapiens, Fibroblast).
As for `CC(C)Oc1ccc(C(=O)Nc2cc3cc(-c4cnc5n4CCNC5)ncc3cn2)cc1` [Compound 4150, 4-Isopropoxy-N-(6-(5,6,7,8-tetrahydroimidazo[1,2-a]pyrazin-3-yl)-2,7-naphthyridin-3-yl)benzamide], the pEC50 is less than 5.00 in assay [1]; 5.55 in assay [2] (Homo sapiens, SW480); 5.29 in assay [3]; less than 5.00 in assay [4] (Homo sapiens, SW480, 96 h); 7.28 in assay [5]; 5.45 in assay [7] (Homo sapiens, Fibroblast, 96 h). The inhibition at 10 µM in assay [1] worked out at 4.6%; in assay [4] (Homo sapiens), 32.7%.
For `CN1CCC(Oc2ccc(C(=O)Nc3ncc4ccc(-c5cnn(C)c5)cc4n3)cc2)CC1` [Compound 1052, N-(7-(1-Methyl-1H-pyrazol-4-yl)quinazolin-2-yl)-4-((1-methylpiperidin-4-yl)oxy)benzamide], the pEC50 in assay [1] is less than 5.00; in assay [2] (Homo sapiens, SW480) it was 5.50; in assay [3], 5.03; in assay [4] (Homo sapiens, SW480, 96 h), 5.27; in assay [5], 7.46; in assay [7] (Homo sapiens, Fibroblast, 96 h), 5.06. Besides, the inhibition at 10 µM in assay [1] came out at 3.8%.
Consider `CC(C)CN1CCC(CC(=O)Nc2ncc3ccc(-c4cnn(C)c4)cc3n2)C1` (stereo not shown) [Compound 1029, 2-(1-Isobutylpyrrolidin-3-yl)-N-(7-(1-methyl-1H-pyrazol-4-yl)quinazolin-2-yl)acetamide], for which the pEC50 in assay [1] is less than 5.00; in assay [2] (Homo sapiens, SW480), 5.54; in assay [3] it was 6.62; in assay [4] (Homo sapiens, SW480, 96 h) it was less than 5.00; in assay [5], 7.35; in assay [7] (Homo sapiens, Fibroblast, 96 h), less than 5.00. Moreover, the inhibition at 10 µM came out at 3.2% in assay [1]; 38.5% in assay [4] (Homo sapiens); 28% in assay [7] (Homo sapiens, Fibroblast).
As for `CN(C)C1CCN(c2cc(C(=O)Nc3cc4cc(-c5cn(C)nn5)ncc4cn3)ccn2)CC1` [Compound 4003, 2-(4-(Dimethylamino)piperidin-1-yl)-N-(6-(1-methyl-1H-1,2,3-triazol-4-yl)-2,7-naphthyridin-3-yl)isonicotinamide], the pEC50 in assay [1] was less than 5.00; in assay [2] (Homo sapiens, SW480) it was less than 5.00; in assay [3], 5.76; in assay [4] (Homo sapiens, SW480, 96 h), less than 5.00; in assay [5], 7.25; in assay [7] (Homo sapiens, Fibroblast, 96 h), less than 5.00. Further, the inhibition at 10 µM in assay [1] came to 3.7%; in assay [2] (Homo sapiens), 34%; in assay [4] (Homo sapiens) it was 50.4%; in assay [7] (Homo sapiens, Fibroblast), 24.6%.
Consider `CN1CCCN(CC(=O)Nc2ncc3ccc(-c4cnn(C)c4)cc3n2)CC1` [Compound 1013, 2-(4-Methyl-1,4-diazepan-1-yl)-N-(7-(1-methyl-1H-pyrazol-4-yl)quinazolin-2-yl)acetamide], for which the pEC50 is less than 5.00 in assay [1]; less than 5.00 in assay [2] (Homo sapiens, SW480); 6.27 in assay [3]; less than 5.00 in assay [4] (Homo sapiens, SW480, 96 h); 7.12 in assay [5]; less than 5.00 in assay [7] (Homo sapiens, Fibroblast, 96 h). Further, the inhibition at 10 µM amounted to 3.1% in assay [1]; 0% in assay [2] (Homo sapiens); 10.5% in assay [4] (Homo sapiens); 12.4% in assay [7] (Homo sapiens, Fibroblast).
